{
  "source": "patent US7320804B2",
  "about": "“Cough depressant composition containing iron for angiotensin-converting enzyme inhibitor inducing cough” (Samsung Life Public Welfare Foundation Samsund Medical …, priority 2000, dated 2008)",
  "test_system": "ACEI-induced cough",
  "conditions": "for Change of cough score, treatment versus observation period (in words): Wilcoxon's signed rank sum test, iron taking group; for Degree of cough, mean daily cough score: 10 patients on ACEI, observation period 6.14 ± 1.41",
  "experimental": "The research pertaining to the ACEI-induced cough depressant effect by the iron was carried out with nineteen patients taking ACEI. These subjects were patients who developed cough as a result of the side effect caused by taking ACEI. The experiment period was divided into the observation period and the treatment period. 10 of the patients took iron and 9 of the patients took placebo.\nThe effect of the cough depressant containing iron of the present invention was tested. The cough depressant composition used in the test was ferrous sulphate. Anemia medicine sold as Feroba (trademark), whose ferrous sulphate was removed, was used as the placebo. The 19 tested patients had developed persistent dry cough while taking ACEI for various reasons. They include 6 men and 13 women, whose mean age was 59.9±12.2 years. The patients were divided into groups; the treatment group, which comprised 10 patients taking iron, and the control group, comprising 9 patients taking placebo. The characteristics of the patients are denoted in Table 1. All the patients gave informed consent, and the test was approved by the ethical committee of the Samsung Medical Center and Samsung Biomedical Research Center, Seoul, Korea.\nACEI-induced cough was defined as dry cough that occurred with ACEI use that subsided in seven days after discontinuation of the drug, and reappeared within 48 hours after the re-introduction of the drug and with no abnormality in the lungs and the bronchi.\n19 patients completed a cough diary during a 2-week observation period while taking ACEI only. […] Each day was divided into two 12-hour periods. The daytime period began at 8 A.M., and the nighttime period, vice versa. Patients recorded the cough score for each period.\nAt the end of the observation period, blood samples were drawn from the patient for evaluation of hemoglobin level, hematocrit, iron concentration, total iron binding capacity (“TIBC”), and ferritin concentration. After sampling, they were randomized to either an iron taking group or placebo taking group. 256 mg of ferrous sulfate (of which 80 mg is ferrate) was daily administered to the iron taking group. During the four weeks of the treatment period, subjects were asked to fill in a cough diary in the identical way that they completed the diary in the observation period. After four weeks of the treatment period, blood sampling was repeated for the same evaluation (hemoglobin level, hematocrit, iron concentration, total iron binding capacity (“TIBC”) and ferritin concentration) that was performed in the initiation of the treatment period.\nCough scores from the last week of the observation period and the last week of the treatment period were compared and evaluated. The total sum of the cough scores were calculated from cough scores during the daytime and the nighttime recorded from the range of 0 to 4 for the last week of the observation period and the treatment period, and mean daily cough scores were calculated by dividing the total amount by days. Also, the cough score during the daytime and the nighttime was compared separately. […] The two groups were compared using Wilcoxon's signed rank sum test.",
  "note": "Read-outs that look alike come from different tables or passages of the source.",
  "data": [
    {"smiles": "O=S(=O)([O-])[O-].[Fe+2]", "note": "[Iron, ferrous sulphate]", "values": [
      {"measurement": "Change of cough score, treatment versus observation period (in words)", "setting": "listed as ferrous sulphate", "result": "significantly reduced"},
      {"measurement": "Change of cough score, treatment versus observation period (in words)", "setting": "listed as iron", "result": "significant reduction of dry cough"},
      {"measurement": "Degree of cough, mean daily cough score", "setting": "last week of 4-week treatment period, 256 mg ferrous sulfate daily, mean ± SD", "result": "3.39 ± 2.20", "unit": "score"},
      {"measurement": "Degree of cough, mean daily cough score", "setting": "last week of 4-week treatment period, 256 mg ferrous sulfate daily, mean ± SD, listed as iron", "result": "3.39±2.20", "unit": "score"},
      {"measurement": "Degree of cough, daytime cough score", "setting": "last week of 4-week treatment period, 256 mg ferrous sulfate daily, mean ± SD, observation period 2.86 ± 0.86", "result": "1.51 ± 1.00", "unit": "score"},
      {"measurement": "Degree of cough, nighttime cough score", "setting": "last week of 4-week treatment period, 256 mg ferrous sulfate daily, mean ± SD, observation period 3.29 ± 0.73", "result": "1.87 ± 1.24", "unit": "score"},
      {"measurement": "Number of patients showing almost complete abolishment of cough", "setting": "of 10 patients in the iron taking group", "result": "three"},
      {"measurement": "Number of patients showing reduction in cough (decrease in cough score)", "setting": "of 10 patients who took iron, treatment versus observation period", "result": 9, "unit": "patients"}
    ]}
  ]
}
